pEC50: −log10 of the molar value.
biological target: T1, full-length SHP2^R138Q (Homo sapiens, UniProt Q06124, R138Q); experiment: SHP2 activation assay using phosphopeptides (DiFMUP), SHP2 R138Q; assay type: biochemical; conditions: activation of full-length SHP2 R138Q (0.05 nM) by phosphopeptide; DiFMUP substrate; HEPES pH 7.2 assay buffer; mean of N (column N)
T1 construct: Full-length SHP2 constructs were diluted in assay buffer; His6-TEV (N, cleaved yes); made in house; host or cells: E. coli BL21(DE3)
T1 sequence (Q06124 1-593 R138Q): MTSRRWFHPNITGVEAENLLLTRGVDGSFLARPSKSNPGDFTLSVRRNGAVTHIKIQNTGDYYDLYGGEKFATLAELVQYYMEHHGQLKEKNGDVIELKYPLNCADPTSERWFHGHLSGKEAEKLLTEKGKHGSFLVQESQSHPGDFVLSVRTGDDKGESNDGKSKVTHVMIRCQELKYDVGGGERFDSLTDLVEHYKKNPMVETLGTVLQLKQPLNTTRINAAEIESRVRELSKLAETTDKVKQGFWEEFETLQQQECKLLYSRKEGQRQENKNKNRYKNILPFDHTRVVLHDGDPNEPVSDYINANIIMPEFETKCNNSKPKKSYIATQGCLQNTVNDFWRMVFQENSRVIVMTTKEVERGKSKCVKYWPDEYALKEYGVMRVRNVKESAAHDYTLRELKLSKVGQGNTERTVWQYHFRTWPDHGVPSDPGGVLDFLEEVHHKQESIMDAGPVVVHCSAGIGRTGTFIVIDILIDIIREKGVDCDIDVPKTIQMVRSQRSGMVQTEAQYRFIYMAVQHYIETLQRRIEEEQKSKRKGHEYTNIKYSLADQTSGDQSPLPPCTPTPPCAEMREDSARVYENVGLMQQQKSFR
Protocol: Emitted fluorescence at 455nm was recorded every 25 seconds in a span of 50 minutes using a BioTek Synergy Neo2 multi-mode reader. […]
In all cases, the linear region of the reaction progress curve was determined by visual inspection and fit to a line. These slopes were converted from absorbance or fluorescence units as a function of time to product formation as a function of time using standard curves measured with the reaction products (p-nitrophenol and 6,8-difluoro-7-hydroxy-4-methylcoumarin). […]
SHP2 activation assays using phosphopeptides
Full-length SHP2 constructs were diluted in assay buffer (60 mM HEPES pH 7.2, 75 mM KCl, 75 mM NaCl,1 mM EDTA, 0.05% Tween-20, with 0.5 mM TCEP freshly added) to a 2X concentration of 0.1 nM. Peptides were serially diluted in assay buffer, with the last point of the concentration series fully without peptide. 15 μL of peptide and 15 μL of 800 μM DiFMUP was added to a black 96-well half area plate. Right before starting the plate reader assay, 30 μL SHP2 was added to each well a Supplementary Information - page 4 of 18 […]
final concentration of 0.05nM. Kinetic measurements (Ex 358/Em […]) were taken on a BioTek Neo2 plate reader every 25 seconds for 6 minutes.
Cloning of the PD-1 ITIM scanning mutagenesis library […]
described previously for other peptide display libraries in the eCPX system (2, 4). A series of oligonucleotides spanning the peptide-coding sequence was synthesized with a different NNS codon in place of each wild-type codon (11 oligonucleotides in total). These degenerate primers were pooled then used to amplify a library of linear DNA encoding mutant ITIM fusions to the eCPX scaffold protein.
This library was then cloned into the pBAD33 vector used for surface display.
SH2 specificity profiling using bacterial peptide display
Preparation of bacterial cells
Electrocompetent MC1061 cells were transformed with ~100 ng of the respective library. After 1 hour recovery in 1 mL LB, cells were further diluted into 250 mL LB + 0.1% chloramphenicol. 1.8 mL of overnight culture was used to inoculate 100 mL LB + 0.1% chloramphenicol, and grown until OD600 reached 0.5. 20 mL of cell suspension was induced at 25 °C using a final concentration of 0.4% arabinose until the OD600 ~ 1 (after approximately 4 hours). The cells were spun down at 4000 rpm for 15 minutes, and the pellet was resuspended in PBS so that the OD600 ~1.5. The cells were stored in the fridge and used within a week.
For each sample, 75 μL of Dynabeads™ FlowComp™ Flexi Kit were washed twice in 1 mL SH2 buffer (50 mM HEPES pH 7.5, 150 mM NaCl, 1 mM TCEP, and 0.2% BSA) on a magnetic rack.
The beads were then resuspended in 75 μL of SH2 buffer. SH2 domains were thawed quickly and 20 μM of protein was added to the beads. SH2 buffer was added up to 150 μL, and the suspension was incubated for 1 hour at 4 °C while rotating. After 1 hour, the suspension was placed on a magnetic rack and washed twice with 1 mL SH2 buffer.
Preparing the phosphorylated cells
150 μL of prepared cells per sample were spun down for 4000 rpm for 5 minutes at 4 °C.
Kinase screen buffer was prepared (50 mM Tris, 10 mM magnesium chloride, 150 mM sodium chloride; add 2 mM sodium orthovanadate and 1 mM TCEP fresh) and the cells of each sample were resuspended in 100 μL kinase screen buffer. Kinases c-Src, c-Abl, AncSZ, Eph1B were added to a final concentration of 2.5 µM each, creatine phosphate was added to a final concentration of 5 mM, and phosphokinase was added to a final concentration of 50 µg/mL. The suspension was incubated at 37 °C for 5 minutes before ATP was added to a final concentration of 1 mM. This mixture was incubated at 37 °C for 3 hours. After 3 hours, EDTA was added to a final concentration of 25 mM to quench the reaction. The input library control sample was not phosphorylated. These cells were spun down at 4000 rpm for 15 minutes at 4 °C. The cells were then resuspended in 100 µL of SH2 buffer […]

Row | Compound | pEC50
1 | CC[C@H](C)[C@H](NC(=O)[C@@H](NC(=O)[C@H](C)NC(=O)[C@H](Cc1ccc(OP(=O)(O)O)cc1)NC(=O)[C@@H](NC(=O)[C@@H]1CCCN1C(=O)[C@H](CCC(=O)O)NC(=O)[C@@H]1CCCN1C(=O)[C@H](CO)NC(=O)[C@@H](NC(C)=O)C(C)C)[C@@H](C)CC)[C@@H](C)O)C(=O)N[C@@H](CC(=O)O)C(=O)N[C@@H](CC(=O)O)C(=O)N[C@@H](CC(C)C)C(N)=O | 4.56
2 | CC[C@H](C)[C@H](NC(=O)[C@H](CC(=O)O)NC(=O)[C@H](C)NC(=O)[C@H](Cc1ccc(OP(=O)(O)O)cc1)NC(=O)[C@H](CCCCN)NC(=O)[C@@H](NC(=O)[C@H](CC(=O)O)NC(=O)CNC(=O)[C@H](CCCCN)NC(=O)[C@H](CCSC)NC(C)=O)C(C)C)C(=O)N[C@@H](CCC(=O)O)C(=O)N[C@@H](CO)C(=O)N[C@@H](CO)C(N)=O | 3.92
3 | CC(=O)N1CCC[C@H]1C(=O)N[C@H](C(=O)N[C@@H](Cc1ccccc1)C(=O)N[C@@H](CO)C(=O)N[C@H](C(=O)N[C@@H](CC(=O)O)C(=O)N[C@@H](Cc1ccc(OP(=O)(O)O)cc1)C(=O)NCC(=O)N[C@@H](CCC(=O)O)C(=O)N[C@@H](CC(C)C)C(=O)N[C@@H](CC(=O)O)C(=O)N[C@@H](Cc1ccccc1)C(=O)N[C@@H](CCC(N)=O)C(N)=O)C(C)C)C(C)C | 5.18
4 | CC(=O)N[C@@H](CO)C(=O)N[C@H](C(=O)NCC(=O)N[C@@H](CO)C(=O)N[C@H](C(=O)N[C@@H](CC(=O)O)C(=O)N[C@@H](Cc1ccc(OP(=O)(O)O)cc1)C(=O)N[C@@H](CC(C)C)C(=O)N[C@@H](C)C(=O)N[C@@H](CC(C)C)C(=O)N[C@@H](CC(=O)O)C(=O)N[C@@H](Cc1ccccc1)C(=O)N[C@@H](CCC(N)=O)C(N)=O)C(C)C)[C@@H](C)O | 5.22
5 | CSCC[C@H](NC(=O)[C@H](CC(C)C)NC(=O)[C@H](CCC(N)=O)NC(=O)[C@H](C)NC(=O)[C@H](Cc1ccc(OP(=O)(O)O)cc1)NC(=O)[C@H](CC(N)=O)NC(=O)[C@H](CC(C)C)NC(=O)[C@H](C)NC(=O)[C@H](C)NC(=O)[C@H](CCCCN)NC(=O)[C@H](CCCCN)NC(C)=O)C(=O)N[C@@H](Cc1ccccc1)C(=O)N1CCC[C@H]1C(N)=O | 5.38
6 | CC[C@H](C)[C@H](NC(=O)[C@H](CC(N)=O)NC(=O)[C@@H](NC(=O)[C@H](Cc1ccc(OP(=O)(O)O)cc1)NC(=O)[C@H](CCC(=O)O)NC(=O)CNC(=O)[C@@H]1CCCN1C(=O)[C@H](CO)NC(=O)[C@H](CCCCN)NC(=O)[C@@H]1CCCN1C(C)=O)C(C)C)C(=O)N[C@@H](CCC(=O)O)C(=O)N[C@@H](Cc1ccccc1)C(=O)NCC(N)=O | 4.53
7 | CC(=O)N[C@@H](C)C(=O)N[C@@H](CCCCN)C(=O)N[C@@H](CO)C(=O)NCC(=O)N[C@@H](C)C(=O)N[C@H](C(=O)N[C@@H](Cc1ccc(OP(=O)(O)O)cc1)C(=O)N[C@@H](CO)C(=O)N[C@@H](CCC(=O)O)C(=O)N[C@@H](CC(C)C)C(=O)N[C@@H](CC(N)=O)C(=O)N[C@@H](Cc1ccccc1)C(=O)NCC(N)=O)C(C)C | 3.78
8 | CC[C@H](C)[C@H](NC(=O)[C@H](Cc1ccc(OP(=O)(O)O)cc1)NC(=O)[C@H](CC(N)=O)NC(=O)[C@H](CC(C)C)NC(=O)CNC(=O)[C@H](CC(N)=O)NC(=O)[C@H](CCC(=O)O)NC(=O)[C@H](CC(C)C)NC(C)=O)C(=O)N[C@@H](CC(=O)O)C(=O)N[C@@H](CC(C)C)C(=O)N[C@@H](CC(=O)O)C(=O)N[C@@H](CC(C)C)C(=O)N[C@H](C(N)=O)C(C)C | 5.84
9 | CC[C@H](C)[C@H](NC(=O)[C@@H](NC(=O)[C@H](C)NC(=O)[C@H](Cc1ccc(OP(=O)(O)O)cc1)NC(=O)[C@H](CCC(=O)O)NC(=O)[C@@H](NC(=O)[C@H](CCC(N)=O)NC(=O)[C@H](CCC(=O)O)NC(=O)[C@@H]1CCCN1C(=O)[C@@H](NC(C)=O)C(C)C)[C@@H](C)O)[C@@H](C)O)C(=O)N[C@H](C(=O)N[C@@H](Cc1ccccc1)C(=O)N1CCC[C@H]1C(N)=O)C(C)C | 5.20
